Consider 24 compounds from patent US9808003B2, “Herbicidally active 2-(substituted-phenyl)-cyclopentane-1,3-dione compounds and derivatives thereof” (Syngenta Limited, priority 2013, dated 2017).

The structures appear in SMILES notation.

What all share (test): Test 1A glasshouse assay, post-emergence herbicidal activity
Common to all, as to format: in vivo

For assay [1], the system named is Alopecurus myosuroides (ALOMY). To be noted: Alopecurus myosuroides, 312 h, application rate 250 g/ha, 13 days after application, visual (100%=total damage; 0%=no damage), read-out: Post-emergence Herbicidal Activity (% Phytotoxicity) ALOMY. On the procedure:
(§1) Seeds of a variety of test species were sown in standard soil in pots. After cultivation for one day (pre-emergence) or after 8 days cultivation (post-emergence) under controlled conditions in a glasshouse (at 24/16° C., day/night; 14 hours light; 65% humidity), the plants were sprayed with an aqueous spray solution derived from the formulation of the technical active ingredient in acetone/water (50:50) solution containing 0.5% Tween 20 (polyoxyethelyene sorbitan monolaurate, CAS RN 9005-64-5). The test plants were then grown under controlled conditions in a glasshouse (at 24/16° C., day/night; 14 hours light; 65% humidity) and watered twice daily. 13 days after application of the test herbicide, for pre- and post-emergence, the test was evaluated visually for percentage phytotoxicity to the plant (where 100%=total damage to plant; 0%=no damage to plant).
(§2) Lolium perenne (LOLPE), Alopecurus myosuroides (ALOMY), Echinochloa crus-galli (ECHCG), and Avena fatua (AVEFA); these are all grassy monocotyledonous weeds.

For a further assay, the system named is Avena fatua (AVEFA). The conditions noted are these: Avena fatua, 312 h, application rate 250 g/ha, 13 days after application, visual (100%=total damage; 0%=no damage), read-out: Post-emergence Herbicidal Activity (% Phytotoxicity) AVEFA. On the procedure: as §1, §2
Assay [2] concerns Echinochloa crus-galli (ECHCG). To be noted: Echinochloa crus-galli, 312 h, application rate 250 g/ha, 13 days after application, visual (100%=total damage; 0%=no damage), read-out: Post-emergence Herbicidal Activity (% Phytotoxicity) ECHCG. How it is done: as §1, §2
The subject of the next assay is Lolium perenne (LOLPE). To be noted: Lolium perenne, 312 h, application rate 250 g/ha, 13 days after application, visual (100%=total damage; 0%=no damage), read-out: Post-emergence Herbicidal Activity (% Phytotoxicity) LOLPE. On the procedure: as §1, §2

As for `COc1ccc(C(=O)NCCC2CC(=O)C(c3c(C)cc(C)cc3C)C2=O)cc1` (stereo not drawn) [Compound A18], the pest or weed control at 250 g/ha in assay [1] was found to be 60%; in the assay on Avena fatua (AVEFA), 80%; in assay [2] it was 100%; with Lolium perenne (LOLPE), 90%.
For `Cc1cc(C)c(C2C(=O)CC(CCNC(=O)c3ccccc3Cl)C2=O)c(C)c1` (stereo not drawn) [Compound A20], in that order: 70%, 70%, 100% and 100%.
For `CCC(CC1CC(=O)C(c2c(C)cc(C)cc2C)C1=O)NC(=O)c1ccc(F)cc1` (stereo not drawn) [Compound A21], in that order: 90%, 90%, 100% and 100%.
Taken in the same sequence, the figures for `Cc1cc(C)c(C2C(=O)CC(CCNC(=O)c3ccc(Cl)nc3)C2=O)c(C)c1` (stereo not drawn) [Compound A22] were 70%, 80%, 80% and 80%.
Regarding `Cc1cc(C)c(C2C(=O)CC(CCNC(=O)c3ccc(Cl)nc3Cl)C2=O)c(C)c1` (stereo not drawn) [Compound A24], the pest or weed control at 250 g/ha in assay [1] came out at 80%; with Avena fatua (AVEFA), 80%; in assay [2], 80%; in the assay on Lolium perenne (LOLPE), 90%.
Take `Cc1cc(C)c(C2C(=O)CC(CCNC(=O)c3cc(Cl)nc(Cl)c3)C2=O)c(C)c1` (stereo not drawn) [Compound A25]: the pest or weed control at 250 g/ha amounted to 50% in assay [1], 40% in the assay with Avena fatua (AVEFA), 80% in assay [2] and 60% with Lolium perenne (LOLPE).
For `Cc1cc(C)c(C2C(=O)CC(CCNC(=O)c3cccnc3Cl)C2=O)c(C)c1` (stereo not drawn) [Compound A26], in that order: 80%, 80%, 80% and 80%.
For `Cc1cc(C)c(C2C(=O)CC(CCNC(=O)c3ccc4ccccc4n3)C2=O)c(C)c1` (stereo not drawn) [Compound A27], in that order: 80%, 90%, 100% and 70%.
For `COc1cc(C(=O)NCCC2CC(=O)C(c3c(C)cc(C)cc3C)C2=O)cc(Cl)n1` (stereo not drawn) [Compound A28], in that order: 100%, 50%, 80% and 70%.
`Cc1cc(C)c(C2C(=O)CC(CCNC(=O)c3ccc(C(F)(F)F)nc3)C2=O)c(C)c1` (stereo not drawn) [Compound A29]: the pest or weed control at 250 g/ha in assay [1] was determined as 80%; in the assay with Avena fatua (AVEFA), 90%; in assay [2] it was 80%; in the assay with Lolium perenne (LOLPE), 80%.
On to `Cc1cc(C)c(C2C(=O)CC(CCNC(=O)C3CCOCC3)C2=O)c(C)c1` (stereo not drawn) [Compound A35], for which the pest or weed control at 250 g/ha is 80% in assay [1], 40% with Avena fatua (AVEFA), 40% in assay [2] and 60% with Lolium perenne (LOLPE).
Take `Cc1cc(C)c(C2C(=O)CC(CCNC(=O)C3CCOC3)C2=O)c(C)c1` (stereo not drawn) [Compound A36]: the pest or weed control at 250 g/ha in assay [1] stood at 80%; in the assay on Avena fatua (AVEFA), 70%; in assay [2] it was 80%; in the assay with Lolium perenne (LOLPE), 80%.
As for `Cc1cc(C)c(C2C(=O)CC(CCNC(=O)c3cccc[n+]3[O-])C2=O)c(C)c1` (stereo not drawn) [Compound A37], the pest or weed control at 250 g/ha was found to be 100% in assay [1], 80% in the assay with Avena fatua (AVEFA), 80% in assay [2] and 90% in the assay on Lolium perenne (LOLPE).
In the case of `Cc1cc(-c2ccc(Cl)cn2)cc(C)c1C1C(=O)CC(CCNC(=O)c2ccccn2)C1=O` (stereo not drawn) [Compound A38], the pest or weed control at 250 g/ha (in assay [1]; in the assay with Avena fatua (AVEFA); in assay [2]; in the assay with Lolium perenne (LOLPE)) was 100% throughout.
For the compound `Cc1cc(C)c(C2C(=O)CC(CCNC(=O)c3nc(Cl)ccc3Cl)C2=O)c(C)c1` (stereo not drawn) [Compound A39], the pest or weed control at 250 g/ha (in assay [1]; in the assay on Avena fatua (AVEFA); in assay [2]; in the assay with Lolium perenne (LOLPE)) was 100% each time.
As for `Cc1cc(C)c(C2C(=O)CC(CCNC(=O)c3nc(Cl)ccc3Br)C2=O)c(C)c1` (stereo not drawn) [Compound A40], the pest or weed control at 250 g/ha (in assay [1]; with Avena fatua (AVEFA); in assay [2]; in the assay on Lolium perenne (LOLPE)) was 100% in each case.
`Cc1cc(C)c(C2C(=O)CC(CCNC(=O)c3ncccc3N)C2=O)c(C)c1` (stereo not drawn) [Compound A41]: the pest or weed control at 250 g/ha was 70% in assay [1], 70% in the assay on Avena fatua (AVEFA), 60% in assay [2] and 70% in the assay on Lolium perenne (LOLPE).
For `Cc1cc(C)c(C2C(=O)CC(CCNC(=O)c3ncc(C(F)(F)F)cc3Cl)C2=O)c(C)c1` (stereo not drawn) [Compound A43], the pest or weed control at 250 g/ha (in assay [1]; in the assay on Avena fatua (AVEFA); in assay [2]; in the assay on Lolium perenne (LOLPE)) was 100% each time.
As for `Cc1cc(C)c(C2C(=O)CC(CCNC(=O)c3ncccc3Cl)C2=O)c(C)c1` (stereo not drawn) [Compound A44, 3-chloro-N-[2-[2,4-dioxo-3-(2,4,6-trimethylphenyl)cyclopentyl]ethyl]pyridine-2-carboxamide], the pest or weed control at 250 g/ha in assay [1] was 100%; with Avena fatua (AVEFA) it was 90%; in assay [2] it was 100%; in the assay with Lolium perenne (LOLPE), 100%.
Regarding `Cc1cc(C)c(C2C(=O)CC(CCNC(=O)Cc3ccccn3)C2=O)c(C)c1` (stereo not drawn) [Compound A45], the pest or weed control at 250 g/ha in assay [1] worked out at 50%; with Avena fatua (AVEFA), 80%; in assay [2] it was 60%; in the assay with Lolium perenne (LOLPE) it was 80%.
Take `Cc1cc(C)c(C2C(=O)CC(CCNC(=O)c3ncccc3Br)C2=O)c(C)c1` (stereo not drawn) [Compound A46]: the pest or weed control at 250 g/ha in assay [1] was found to be 60%; in the assay on Avena fatua (AVEFA), 70%; in assay [2] it was 90%; with Lolium perenne (LOLPE) it was 100%.
As for `Cc1cc(C)c(C2C(=O)CC(CCNC(=O)c3cccc(Cl)n3)C2=O)c(C)c1` (stereo not drawn) [Compound A47], the pest or weed control at 250 g/ha in assay [1] was 80%; in the assay with Avena fatua (AVEFA), 90%; in assay [2], 100%; with Lolium perenne (LOLPE), 100%.
`Cc1cc(C)c(C2C(=O)CC(CCNC(=O)c3cccc(Br)n3)C2=O)c(C)c1` (stereo not drawn) [Compound A48]: the pest or weed control at 250 g/ha in assay [1] is 100%; with Avena fatua (AVEFA) it was 90%; in assay [2], 100%; in the assay with Lolium perenne (LOLPE), 100%.
For `Cc1cc(C)c(C2C(=O)CC(CCNC(=O)C(F)c3ccccc3)C2=O)c(C)c1` (stereo not drawn) [Compound A50], the pest or weed control at 250 g/ha in assay [1] is 20%; with Avena fatua (AVEFA) it was 70%; in assay [2], 70%; in the assay with Lolium perenne (LOLPE), 100%.
